Assay results reported in paper PMC9688344, “[^225Ac]Ac-SibuDAB for Targeted Alpha Therapy of Prostate Cancer: Preclinical Evaluation and Comparison with [^225Ac]Ac-PSMA-617” (Cancers, 2022).

What was measured:
[1] = system: PSMA-negative PC-3 flu tumors; experiment: Therapy study in PC-3 flu tumor-bearing mice; format: in vivo, BALB/c nude mice; details: 30 kBq
Method: Five days after subcutaneous inoculation of four groups of mice with either PC-3 PIP or PC-3 flu tumor cells on the right shoulder (4 × 10^6 cells in 100 μL HBSS), the mice were intravenously injected with either vehicle only (saline with 0.05% BSA, n = 6 and n = 4, respectively) or with 30 kBq [^225Ac]Ac-SibuDAB (1 nmol per mouse; n = 4 per group) diluted in vehicle (Table 1).
(§1) After administration of the radioligands, the mice were monitored over 8 weeks using the same measures as previously published by Umbricht et al.. The relative body mass was defined as [BMx/BM0], where BMx is the body mass in grams at a given Day x and BM0 is the body mass in grams at Day 0. The tumor dimension was determined by measuring the longest tumor axis (L) and its perpendicular axis (W) with a digital caliper. The tumor volume (V) was calculated according to the equation [V = 0.5 × (LW^2)]. The relative tumor volume was defined as [TVx/TV0], where TVx is the tumor volume in mm^3 at a given Day x, and TV0 is the tumor volume in mm^3 at Day 0. Endpoint criteria that required euthanasia were defined as (i) body mass loss of >15%, (ii) a tumor volume of >800 mm^3, (iii) a combination of body mass loss of >10% and a tumor volume of >700 mm^3 or, (iv) signs of unease and pain or a combination thereof using a scoring system as previously reported. The median survival of mice of each group was assessed with Kaplan–Meier curves. Potential early side effects for mice that survived until study end were determined based on blood chemistry and organ-to-brain mass ratios on Day 56 by comparison to values obtained from an additional group of therapy-naïve mice (n = 4) without tumors but of the same age (Supplementary Material: Section S9).

[2] = system: BALB/c nude mice; experiment: Comparison of treated (cured) therapy mice with healthy mice at study end; format: in vivo
Method: as §1, with “S9). […]” for “S9).”
10. Comparison of [225Ac]Ac-SibuDAB-Treated Mice with Healthy Mice at Study End Purpose: To investigate whether a successful tumor treatment with [225Ac]Ac- […]
compared to treatment-naïve, non-tumor-bearing mice on Day 56.
Methods: In order to assess the tolerability of the treatment, the body mass, the organ masses and organ-to-brain mass ratios as well as blood chemistry of the cured mice were compared to those of healthy, non-tumor-bearing BALB/c nude mice on Day 56.
Results: Survival: Targeted alpha therapy using [225Ac]Ac-SibuDAB was very effec-tive and all mice treated with 5 kBq, 10 kBq or 30 kBq of this radioligand survived until […]
Body Mass: The body mass of mice that were effectively treated with [225Ac]Ac-SibuDAB was in the same range as for healthy, non-tumor-bearing control mice at the end of the study on Day 56 (p>0.05) ( Table S11).

For `CC(C)Cc1ccc(C(C)C(=O)NC(CCN)C(=O)NCCCCC(NC(=O)CN2CCN(CC(=O)[O-])CCN(CC(=O)[O-])CCN(CC(=O)[O-])CC2)C(=O)NCC2CCC(C(=O)NC(Cc3ccc4ccccc4c3)C(=O)NCCCCC(NC(=O)NC(CCC(=O)O)C(=O)O)C(=O)O)CC2)cc1.[225Ac+3]` (centres unmarked) [[^225Ac]Ac-SibuDAB], the “Day of first endpoint” value [1] was 18, the “Day of last endpoint” value [1] was 27 and the “Median Survival” value [1] was 25 days. For the same molecule, the “Number of Mice Alive on Day 56” value [1] was 0/4, the Tumor growth delay [1] was “not significantly delay the growth” and the ALB ([2]; Day 56, 5 kBq) was 25 ± 2 g/L. It also gave an ALP ([2]; Day 56, 5 kBq) of 93 ± 10 U/L, a BUN ([2]; Day 56, 5 kBq) of 6.4 ± 1.2 mmol/L and a Brain mass ([2]; Day 56, 5 kBq) of 403 ± 14 mg. The Kidney mass ([2]; Day 56, 5 kBq) was 252 ± 15 mg, the Kidney-to-brain mass ratio ([2]; Day 56, 5 kBq) was 0.63 ± 0.03 and the Liver mass ([2]; Day 56, 5 kBq) was 1079 ± 47 mg. The Liver-to-brain mass ratio ([2]; Day 56, 5 kBq) was 2.7 ± 0.1, the “RBM (relative body mass)” value ([2]; Day 56, 5 kBq) was 1.13 ± 0.05 and the Spleen mass ([2]; Day 56, 5 kBq) was 113 ± 17 mg. The Spleen-to-brain mass ratio ([2]; Day 56, 5 kBq) was 0.28 ± 0.04, the TBIL ([2]; Day 56, 5 kBq) was 4.0 ± 0.9 µmol/L and the ALB ([2]; Day 56, 10 kBq) was 26 ± 2 g/L. For the same molecule, the ALP ([2]; Day 56, 10 kBq) was 85 ± 7 U/L, the BUN ([2]; Day 56, 10 kBq) was 7.3 ± 0.8 mmol/L and the Brain mass ([2]; Day 56, 10 kBq) was 384 ± 18 mg. It also gave a Kidney mass ([2]; Day 56, 10 kBq) of 260 ± 11 mg, a Kidney-to-brain mass ratio ([2]; Day 56, 10 kBq) of 0.68 ± 0.04 and a Liver mass ([2]; Day 56, 10 kBq) of 1139 ± 83 mg. The Liver-to-brain mass ratio ([2]; Day 56, 10 kBq) was 3.0 ± 0.2, the “RBM (relative body mass)” value ([2]; Day 56, 10 kBq) was 1.12 ± 0.03 and the Spleen mass ([2]; Day 56, 10 kBq) was 116 ± 32 mg. It also gave a Spleen-to-brain mass ratio ([2]; Day 56, 10 kBq) of 0.31 ± 0.09, a TBIL ([2]; Day 56, 10 kBq) of 3.2 ± 0.4 µmol/L and an ALB ([2]; Day 56, 30 kBq) of 22 ± 1 g/L. For the same molecule, the ALP ([2]; Day 56, 30 kBq) was 83 ± 2 U/L, the “Adverse events in cured mice compared to healthy mice” value ([2]; Day 56, 30 kBq) was “No obvious adverse events” and the BUN ([2]; Day 56, 30 kBq) was 7.2 ± 0.7 mmol/L. The Brain mass ([2]; Day 56, 30 kBq) was 408 ± 16 mg, the Kidney mass ([2]; Day 56, 30 kBq) was 252 ± 24 mg and the Kidney-to-brain mass ratio ([2]; Day 56, 30 kBq) was 0.62 ± 0.05. For the same molecule, the Liver mass ([2]; Day 56, 30 kBq) was 1096 ± 79 mg, the Liver-to-brain mass ratio ([2]; Day 56, 30 kBq) was 2.7 ± 0.2 and the “RBM (relative body mass)” value ([2]; Day 56, 30 kBq) was 1.11 ± 0.02. For the same molecule, the Spleen mass ([2]; Day 56, 30 kBq) was 127 ± 23 mg, the Spleen-to-brain mass ratio ([2]; Day 56, 30 kBq) was 0.31 ± 0.07 and the TBIL ([2]; Day 56, 30 kBq) was 4.3 ± 0.5 µmol/L. The Kidney-to-brain mass ratio ([2]; cured mice, Day 56, range over groups) was 0.62–0.68 and the “Tolerability of therapy (body mass increasing over time)” value ([2]; effectively treated PC-3 PIP tumor-bearing mice) was “well tolerated”.
